Biological target: T1, RORc ligand binding domain (Homo sapiens, UniProt P51449)
T1 construct: host or cells: E. coli
T1 sequence (P51449 269-508 limits assumed): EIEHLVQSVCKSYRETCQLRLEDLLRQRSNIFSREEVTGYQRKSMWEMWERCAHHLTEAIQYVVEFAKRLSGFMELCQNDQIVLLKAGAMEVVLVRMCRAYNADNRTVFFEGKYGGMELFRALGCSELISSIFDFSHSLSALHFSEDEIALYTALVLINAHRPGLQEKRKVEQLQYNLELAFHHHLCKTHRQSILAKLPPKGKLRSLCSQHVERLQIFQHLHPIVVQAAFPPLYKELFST
Experiment: In vitro RORc ligand binding assay (25-[3H]hydroxycholesterol displacement, filter binding)
Settings: 6 nM 25-[3H]hydroxycholesterol, 0.6 ug/mL RORc receptor, 3 h at 25° C.
Description: Example 17: In Vitro RORc Ligand Binding Assay
This assay was used to determine a compound's potency in inhibiting activity of RORc by determining, Kiapp, IC50, or percent inhibition values.
On day of the assay, 100 uL of 0.05% CHAPS (in deionized H2O) was added to all wells of the GFB Unifilter plate and allowed soak for 1 h. A wash buffer of 50 mM HEPES (pH 7.4), 150 mM NaCl, and 5 mM MgCl2 was prepared to wash the filter plate. To prepare an assay buffer, BSA was added to the wash buffer to reach 0.01% and DTT was added to reach 1 mM.
For IC50 mode, 10 mM compound stocks were serially diluted in DMSO with DMSO to give 20× required final concentration in DMSO (15 uL compound+30 uL DMSO). The 20× compound stocks were diluted in DMSO with Assay Buffer 4-fold to reach 5× the final test concentration in 25% DMSO (10 uL compound+30 uL Assay Buffer). Solutions were mixed by aspiration several times with a pipette set on 50 uL volume. For the assay, 10 uL of 5× compound stock solutions in 25% DMSO were added to the assay plate in duplicate.
For two point screening, 10 mM stock compound solutions were diluted in DMSO to obtain 200 uM (20× the high test concentration) and then diluted 10-fold further to reach 20 uM (20× the low test concentration). The 20× stocks were diluted 4-fold with Assay Buffer (10 uL compound+30 uL Assay Buffer) to reach 5× the test concentrations (50 uM and 5 uM) and 10 uL were added to two assay plates for the duplicate wells. With each concentration tested on 2 plates, each set of 80 compounds used 4 assay plates (1 uM and 10 uM, with n=2).
25-hydroxycholesterol (1 uM) was used to determine the level of NSB signal is prepared in DMSO as for compounds above, then diluted in Assay Buffer to give a final concentration of 5 uM. For 25-hydroxycholesterol in 25% DMSO/75% Assay Buffer; 10 uL per well was used for NSB samples. Wells for Total Binding and No Receptor sample determination contained 10 uL of 25% DMSO/75% Assay Buffer per well.
25-[^3H]hydroxycholesterol was diluted in Assay Buffer to obtain 15 nM and vortex to mix. Add 20 uL to all wells to reach 6 nM final concentration in the assay.
Stock receptor solution was diluted in assay buffer to obtain 1.5 ug/mL in Assay Buffer. 20 uL was added to all wells. For No Receptor samples, 20 uL Assay Buffer was substituted for receptor solution.
Assay plates were 96-well polypropylene V-bottom plates. 10 uL of 5× compound in 25% DMSO/75% Assay Buffer was added to Test wells. 10 uL of 25% DMSO/75% Assay Buffer was added to Total Binding or No Receptor wells. 10 uL of 5 uM 25-hydroxycholesterol in 25% DMSO/75% Assay Buffer was added to NSB wells. 20 uL of 15 nM 25-[^3H]hydroxycholesterol prepared in Assay Buffer was added to all wells. 20 uL of 1.5 ug/mL RORc receptor was added to wells (or […] Assay Buffer to No R wells). Following addition to the wells, the plates were incubated 3 h at 25° C.
Using a Packard Filtermate Harvester, the filter plate were washed 4 times following transfer of the incubated samples. Plates were dry-filtered completely (2 h at 50° C. or overnight at room temperature). 50 uL Microscint 0 was added to all wells and read on Topcount protocol Inverted.
Final concentrations were as follows: 50 mM HEPES buffer (pH 7.4); 150 mM NaCl; 1 mM DTT; 5 mM MgCl2; 0.01% BSA; 5% DMSO; 0.6 ug/mL RORc receptor; 6 nM 25-[^3H]hydroxycholesterol. For NSB wells, 1 uM 25-hydroxycholesterol was also present.

SMILES | IC50
Cc1nc(C[C@@]23CC[C@@H](c4cc(-c5c(F)cccc5F)nnc42)C3(C)C)no1 [Example 59, (5R,8R)-3-(2,6-difluorophenyl)-9,9-dimethyl-8-[(5-methyl-1,2,4-oxadiazol-3-yl)methyl]-5,6,7,8-tetrahydro-5,8-methanocinnoline] | 106 nM
Cc1noc([C@]23CC[C@H](c4cc(-c5c(F)cccc5F)nnc42)C3(C)C)n1 [Example 60, (5S,8S)-3-(2,6-difluorophenyl)-9,9-dimethyl-8-(3-methyl-1,2,4-oxadiazol-5-yl)-5,6,7,8-tetrahydro-5,8-methanocinnoline] | 415 nM
CC1(C)[C@H]2CC[C@]1(Cc1noc(CO)n1)c1nnc(-c3c(F)cccc3F)cc12 [Example 61, (3-{[(5R,8R)-3-(2,6-difluorophenyl)-9,9-dimethyl-6,7-dihydro-5,8-methanocinnolin-8(5H)-yl]methyl}-1,2,4-oxadiazol-5-yl)methanol] | 323 nM
COCc1nc(C[C@@]23CC[C@@H](c4cc(-c5c(F)cccc5F)nnc42)C3(C)C)no1 [Example 62, (5R,8R)-3-(2,6-difluorophenyl)-8-{[5-(methoxymethyl)-1,2,4-oxadiazol-3-yl]methyl}-9,9-dimethyl-5,6,7,8-tetrahydro-5,8-methanocinnoline] | 129 nM
COC(=O)c1ccc(COC[C@]23CC[C@H](c4cc(-c5ccccc5F)nnc42)C3(C)C)cc1 [Example 63, methyl 4-({[(5S,8S)-3-(2-fluorophenyl)-9,9-dimethyl-6,7-dihydro-5,8-methanocinnolin-8(5H)-yl]methoxy}methyl) benzoate] | 136 nM
Cc1noc([C@@]23CC[C@@H](c4cc(-c5c(F)cccc5F)nnc42)C3(C)C)n1 [Example 64, (5R,8R)-3-(2,6-difluorophenyl)-9,9-dimethyl-8-(3-methyl-1,2,4-oxadiazol-5-yl)-5,6,7,8-tetrahydro-5,8-methanocinnoline] | 67 nM
Cc1nnc(C[C@@]23CC[C@@H](c4cc(-c5c(F)cccc5F)nnc42)C3(C)C)o1 [Example 65, (5R,8R)-3-(2,6-difluorophenyl)-9,9-dimethyl-8-[(5-methyl-1,3,4-oxadiazol-2-yl)methyl]-5,6,7,8-tetrahydro-5,8-methanocinnoline] | 131 nM
CN(C)Cc1nc(C[C@@]23CC[C@@H](c4cc(-c5c(F)cccc5F)nnc42)C3(C)C)no1 [Example 66, 1-(3-{[(5R,8R)-3-(2,6-difluorophenyl)-9,9-dimethyl-6,7-dihydro-5,8-methanocinnolin-8(5H)-yl]methyl}-1,2,4-oxadiazol-5-yl)-N,N-dimethylmethanamine] | 298 nM
Cc1nnc([C@@]23CC[C@@H](c4cc(-c5c(F)cccc5F)nnc42)C3(C)C)o1 [Example 67, (5R,8R)-3-(2,6-difluorophenyl)-9,9-dimethyl-8-(5-methyl-1,3,4-oxadiazol-2-yl)-5,6,7,8-tetrahydro-5,8-methanocinnoline] | 31 nM
CC1(C)[C@H]2CC[C@]1(c1nnc(CO)o1)c1nnc(-c3c(F)cccc3F)cc12 [Example 68, {5-[(5R,8R)-3-(2,6-difluorophenyl)-9,9-dimethyl-6,7-dihydro-5,8-methanocinnolin-8(5H)-yl]-1,3,4-oxadiazol-2-yl}methanol] | 116 nM
CC1(C)[C@@H]2CC[C@@]1(C(=O)N1CCCC1)c1nnc(-c3c(F)cccc3F)cc12 [Example 69, [(5S,8S)-3-(2,6-difluorophenyl)-9,9-dimethyl-6,7-dihydro-5,8-methanocinnolin-8(5H)-yl](pyrrolidin-1-yl)methanone] | 23 nM
CN(C(=O)[C@]12CC[C@H](c3cc(-c4c(F)cccc4F)nnc31)C2(C)C)C1CCC1 [Example 70, (5S,8S)-N-cyclobutyl-3-(2,6-difluorophenyl)-N,9,9-trimethyl-6,7-dihydro-5,8-methanocinnoline-8(5H)-carboxamide] | 215 nM
CC1(C)[C@@H]2CC[C@@]1(COCc1ccc(C(=O)O)cc1)c1nnc(-c3ccccc3F)cc12 [Example 71, 4-({[(5S,8S)-3-(2-fluorophenyl)-9,9-dimethyl-6,7-dihydro-5,8-methanocinnolin-8(5H)-yl]methoxy}methyl) benzoic acid] | 284 nM
CC1(C)[C@@H]2CC[C@@]1(COCc1ccc(C(N)=O)cc1)c1nnc(-c3ccccc3F)cc12 [Example 72, 4-({[(5S,8S)-3-(2-fluorophenyl)-9,9-dimethyl-6,7-dihydro-5,8-methanocinnolin-8(5H)-yl]methoxy}methyl) benzamide] | 158 nM
CN(C)C(=O)[C@]12CC[C@H](c3cc(-c4c(F)cccc4F)nnc31)C2(C)C [Example 73, (5S,8S)-3-(2,6-difluorophenyl)-N,N,9,9-tetramethyl-6,7-dihydro-5,8-methanocinnoline-8(5H)-carboxamide] | 29 nM
CC1(C)CN(C(=O)[C@]23CC[C@H](c4cc(-c5c(F)cccc5F)nnc42)C3(C)C)C1 [Example 74, [(5S,8S)-3-(2,6-difluorophenyl)-9,9-dimethyl-6,7-dihydro-5,8-methanocinnolin-8(5H)-yl](3,3-dimethylazetidin-1-yl)methanone] | 693 nM
Cc1noc(C[C@@]23CC[C@@H](c4cc(-c5c(F)cccc5F)nnc42)C3(C)C)n1 [Example 75, (5R,8R)-3-(2,6-difluorophenyl)-9,9-dimethyl-8-[(3-methyl-1,2,4-oxadiazol-5-yl)methyl]-5,6,7,8-tetrahydro-5,8-methanocinnoline] | 89 nM
CC1(C)[C@H]2CC[C@]1(C(N)=O)c1nnc(-c3c(F)cccc3F)cc12 [Example 77, (5R,8R)-3-(2,6-difluorophenyl)-9,9-dimethyl-6,7-dihydro-5,8-methanocinnoline-8(5H)-carboxamide] | 1460 nM
CC1(C)[C@H]2CC[C@]1(C#N)c1nnc(-c3c(F)cccc3F)cc12 [Example 78, (5R,8R)-3-(2,6-difluorophenyl)-9,9-dimethyl-6,7-dihydro-5,8-methanocinnoline-8(5H)-carbonitrile] | 925 nM
CN(C)C1CN(C(=O)[C@]23CC[C@H](c4cc(-c5c(F)cccc5F)nnc42)C3(C)C)C1 [Example 79, [(5S,8S)-3-(2,6-difluorophenyl)-9,9-dimethyl-6,7-dihydro-5,8-methanocinnolin-8(5H)-yl][3-(dimethylamino)azetidin-1-yl]methanone] | 1120 nM
Cc1nc([C@@]23CC[C@@H](c4cc(-c5c(F)cccc5F)nnc42)C3(C)C)no1 [Example 80, (5R,8R)-3-(2,6-difluorophenyl)-9,9-dimethyl-8-(5-methyl-1,2,4-oxadiazol-3-yl)-5,6,7,8-tetrahydro-5,8-methanocinnoline] | 136 nM
CC(=O)N[C@@]12CC[C@@H](c3cc(-c4ccccc4F)nnc31)C2(C)C [Example 81, N-[(5R,8R)-3-(2-fluorophenyl)-9,9-dimethyl-6,7-dihydro-5,8-methanocinnolin-8(5H)-yl]acetamide] | 2070 nM
CN(C)C(=O)[C@@]12CC[C@@H](c3cc(-c4c(F)cccc4F)nnc31)C2(C)C [Example 82, (5R,8R)-3-(2,6-difluorophenyl)-N,N,9,9-tetramethyl-6,7-dihydro-5,8-methanocinnoline-8(5H)-carboxamide] | 856 nM

From patent US9981916B2 (Genentech, Inc., priority 2013, dated 2018)
